Reference: patent US6914045B2, “Glycopeptide antibiotics” (Wyeth Holdings Corporation, priority 2001, dated 2005)
In brackets after ≈: the same amount, converted by molar mass.

Legend:
[1] = test system: Enterococcus sp.; experiment: in vitro antibacterial evaluation, MIC by broth dilution; format: cell-based; conditions: broth dilution, 18 hours at 35° C.
Procedure, shortened: (§1)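 Broth dilution per NCCLS M7-A2 in Mueller-Hinton II medium, inoculum 5×10^5 CFU/mL, antibiotic range 64-0.06 μg/mL. MIC taken as lowest concentration inhibiting growth; Gram-positive panel includes recent clinical isolates resistant to methicillin, penicillin and/or vancomycin.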

[2] = test system: Escherichia coli; experiment: as above; format: cell-based; conditions: 18 hours at 35° C.
Procedure, shortened: as §1

[3] = test system: Staphylococcus sp.; experiment: as above; format: cell-based; conditions: broth dilution, 18 hours at 35° C.
Procedure, shortened: as §1

[4] = test system: Streptococcus sp.; experiment: as above; format: cell-based; conditions: broth dilution, 18 hours at 35° C.
Procedure, shortened: as §1

[5] = test system: Staphylococcus aureus-SMITH (GC 4543); experiment: acute lethal infection in mice; format: in vivo; conditions: acute lethal infection, female CD-1 mice, intraperitoneal challenge, intravenous 30 min. after infection, 7 day survival
Procedure, shortened: (§2)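 Female CD-1 mice (20±2 g) got an intraperitoneal bacterial challenge lethal to untreated controls within 24–48 hr. Compound was dosed intravenously 30 min after infection, five mice per dose. ED50 was calculated from 7-day survival pooled across 3 tests.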

[6] = test system: Streptococcus pneumoniae (GC 1894); experiment: acute lethal infection in mice; format: in vivo; conditions: female CD-1 mice, intraperitoneal challenge, intravenous 30 min. after infection, 7 day survival
Procedure, shortened: as §2

[7] = clinical pathology (serum clinical chemistry) in mice; format: in vivo; conditions: CD-1 mice, 20 mg/kg intravenously daily for 9 days, sera day 10
Description: 20-day-old CD-1 mice were divided into a vehicle control group (5 mice) and a treatment group (5 mice). Samples of glycopeptide antibiotics were administered at 20 mg/kg intravenously daily for 9 days.

[8] = anatomic pathology (histopathology of heart and kidney) in mice; format: in vivo; conditions: CD-1 mice, 20 mg/kg intravenously daily for 9 days, necropsy day 10, microscopic histopathology
Description: Samples of tissues from necropsied mice were formalin-fixed, paraffin-embedded, sectioned, stained with hematoxylin and eosin, and examined microscopically. Histopathologic findings were recorded. These findings were subjectively graded on a scale corresponding to slight, mild, moderate, marked and severe as compared to untreated controls.

Compound: CC(c1ccccc1)C1NC(=O)CNC(=O)C(CO)NC(=O)C(C(O)C2CNC(=N)N2C2OC(CO)C(O)C(O)C2O)NC(=O)C(C(O)C2CNC(=N)N2)NC(=O)C(Cc2ccc(OC3OC(CO)C(OC4OC5COC(c6ccccc6)OC5C(O)C4O)C(O)C3O)cc2)NC1=O (centres unmarked) [Example 104, Cyclo[glycyl-3-methylphenylalanyl-O-[4-O-(4,6-O-benzylidenehexopyranosyl)hexopyranosyl]-tyrosyl-3-(2-iminoimidazolidin-4-yl)seryl-3-(3-hexopyranosyl-2-iminoimidazolidin-4-yl)-serylseryl]]
- MIC Enterococcus avium (GC 4558) ([1]; Enterococcus avium (GC 4558)): 2 to 4 µg/mL
- MIC Enterococcus faecalis (ATCC 29212) ([1]; Enterococcus faecalis (ATCC 29212)): 2 to 4 µg/mL
- MIC Enterococcus faecalis (GC 2242) ([1]; Enterococcus faecalis (GC 2242)): 2 µg/mL (≈ 1.45 µM)
- MIC Enterococcus faecalis (GC 2691) ([1]; Enterococcus faecalis (GC 2691)): 4 µg/mL (≈ 2.89 µM)
- MIC Enterococcus faecalis (GC 3059) ([1]; Enterococcus faecalis (GC 3059)): 4 µg/mL (≈ 2.89 µM)
- MIC Enterococcus faecalis (GC 4552) ([1]; Enterococcus faecalis (GC 4552)): 4 µg/mL (≈ 2.89 µM)
- MIC Enterococcus faecalis (GC 4553) ([1]; Enterococcus faecalis (GC 4553)): 4 µg/mL (≈ 2.89 µM)
- MIC Enterococcus faecalis (GC 4554) ([1]; Enterococcus faecalis (GC 4554)): 4 µg/mL (≈ 2.89 µM)
- MIC Enterococcus faecalis (GC 6189) ([1]; Enterococcus faecalis (GC 6189)): 2 µg/mL (≈ 1.45 µM)
- MIC Enterococcus faecium (GC 2243) ([1]; Enterococcus faecium (GC 2243)): 2 µg/mL (≈ 1.45 µM)
- MIC Enterococcus faecium (GC 4556) ([1]; Enterococcus faecium (GC 4556)): 2 to 4 µg/mL
- MIC Enterococcus faecium (GC 4557) ([1]; Enterococcus faecium (GC 4557)): 2 µg/mL (≈ 1.45 µM)
- MIC Enterococcus faecalis (ATCC 29212) ([1]; strain ATCC 29212): 2 to 4 µg/mL
- MIC Enterococcus faecalis (GC 2242) ([1]; strain GC 2242): 2 µg/mL (≈ 1.45 µM)
- MIC Enterococcus faecium (GC 2243) ([1]; strain GC 2243): 2 µg/mL (≈ 1.45 µM)
- MIC Enterococcus faecalis (GC 2691) ([1]; strain GC 2691): 4 µg/mL (≈ 2.89 µM)
- MIC Enterococcus faecalis (GC 3059) ([1]; strain GC 3059): 4 µg/mL (≈ 2.89 µM)
- MIC Enterococcus faecalis (GC 4552) ([1]; strain GC 4552): 4 µg/mL (≈ 2.89 µM)
- MIC Enterococcus faecalis (GC 4553) ([1]; strain GC 4553): 4 µg/mL (≈ 2.89 µM)
- MIC Enterococcus faecalis (GC 4554) ([1]; strain GC 4554): 4 µg/mL (≈ 2.89 µM)
- MIC Enterococcus faecium (GC 4556) ([1]; strain GC 4556): 2 to 4 µg/mL
- MIC Enterococcus faecium (GC 4557) ([1]; strain GC 4557): 2 µg/mL (≈ 1.45 µM)
- MIC Enterococcus avium (GC 4558) ([1]; strain GC 4558): 2 to 4 µg/mL
- MIC Enterococcus faecalis (GC 6189) ([1]; strain GC 6189): 2 µg/mL (≈ 1.45 µM)
- MIC Escherichia coli (ATCC 25922) ([2]; strain ATCC 25922): 32 to 64 µg/mL
- MIC Escherichia coli (GC 4559) ([2]; strain GC 4559): 16 to 32 µg/mL
- MIC Escherichia coli (GC 4560) ([2]; strain GC 4560): 0.5 to 1 µg/mL
- MIC Coagulase Negative Staphylococcus (GC 4547) [3]: 1 µg/mL (≈ 0.723 µM)
- MIC Coagulase Negative Staphylococcus (GC 4548) [3]: 0.5 to 1 µg/mL
- MIC Coagulase Negative Staphylococcus (GC 4549) [3]: 0.5 µg/mL (≈ 0.361 µM)
- MIC Coagulase Negative Staphylococcus (GC 4551) [3]: 1 µg/mL (≈ 0.723 µM)
- MIC Coagulase Negative Staphylococcus (GC 6257) [3]: 0.5 µg/mL (≈ 0.361 µM)
- MIC Staphylococcus aureus (ATCC 29213) [3]: 1 µg/mL (≈ 0.723 µM)
- MIC Staphylococcus aureus (GC 1131) [3]: 2 µg/mL (≈ 1.45 µM)
- MIC Staphylococcus aureus (GC 3051) [3]: 1 µg/mL (≈ 0.723 µM)
- MIC Staphylococcus aureus (GC 3053) [3]: 1 µg/mL (≈ 0.723 µM)
- MIC Staphylococcus aureus (GC 4541) [3]: 1 µg/mL (≈ 0.723 µM)
- MIC Staphylococcus aureus (GC 4542) [3]: 0.5 µg/mL (≈ 0.361 µM)
- MIC Staphylococcus aureus (GC 4544) [3]: 1 µg/mL (≈ 0.723 µM)
- MIC Staphylococcus aureus (GC 4545) [3]: 0.5 to 1 µg/mL
- MIC Staphylococcus aureus-SMITH (GC 4543) [3]: 0.5 to 1 µg/mL
- MIC Staphylococcus haemolyticus (GC 4546) [3]: 0.5 µg/mL (≈ 0.361 µM)
- MIC Staphylococcus haemolyticus (GC 4546) ([3]; strain GC 4546): 0.5 µg/mL (≈ 0.361 µM)
- MIC Coagulase Negative Staphylococcus (GC 4547) ([3]; strain GC 4547): 1 µg/mL (≈ 0.723 µM)
- MIC Coagulase Negative Staphylococcus (GC 4548) ([3]; strain GC 4548): 0.5 to 1 µg/mL
- MIC Coagulase Negative Staphylococcus (GC 4549) ([3]; strain GC 4549): 0.5 µg/mL (≈ 0.361 µM)
- MIC Coagulase Negative Staphylococcus (GC 4551) ([3]; strain GC 4551): 1 µg/mL (≈ 0.723 µM)
- MIC Coagulase Negative Staphylococcus (GC 6257) ([3]; strain GC 6257): 0.5 µg/mL (≈ 0.361 µM)
- MIC Staphylococcus aureus-SMITH (GC 4543) ([3]; strain SMITH GC 4543): 0.5 to 1 µg/mL
- MIC Staphylococcus aureus (ATCC 29213) ([3]; strain ATCC 29213): 1 µg/mL (≈ 0.723 µM)
- MIC Staphylococcus aureus (GC 1131) ([3]; strain GC 1131): 2 µg/mL (≈ 1.45 µM)
- MIC Staphylococcus aureus (GC 3051) ([3]; strain GC 3051): 1 µg/mL (≈ 0.723 µM)
- MIC Staphylococcus aureus (GC 3053) ([3]; strain GC 3053): 1 µg/mL (≈ 0.723 µM)
- MIC Staphylococcus aureus (GC 4541) ([3]; strain GC 4541): 1 µg/mL (≈ 0.723 µM)
- MIC Staphylococcus aureus (GC 4542) ([3]; strain GC 4542): 0.5 µg/mL (≈ 0.361 µM)
- MIC Staphylococcus aureus (GC 4544) ([3]; strain GC 4544): 1 µg/mL (≈ 0.723 µM)
- MIC Staphylococcus aureus (GC 4545) ([3]; strain GC 4545): 0.5 to 1 µg/mL
- MIC Streptococcus agalactiae (GC 4564) ([4]; Streptococcus agalactiae (GC 4564)): <0.12 to 0.25 µg/mL
- MIC Streptococcus pneumoniae (ATCC 6301) ([4]; Streptococcus pneumoniae (ATCC 6301)): <0.12 µg/mL
- MIC Streptococcus pneumoniae (GC 1894) ([4]; Streptococcus pneumoniae (GC 1894)): <0.12 µg/mL
- MIC Streptococcus pneumoniae (GC 4565) ([4]; Streptococcus pneumoniae (GC 4565)): <0.12 µg/mL
- MIC Streptococcus pyogenes (GC 4563) ([4]; Streptococcus pyogenes (GC 4563)): <0.12 µg/mL
- MIC Streptococcus pneumoniae (ATCC 6301) ([4]; strain ATCC 6301): <0.12 µg/mL
- MIC Streptococcus pneumoniae (GC 1894) ([4]; strain GC 1894): <0.12 µg/mL
- MIC Streptococcus pyogenes (GC 4563) ([4]; strain GC 4563): <0.12 µg/mL
- MIC Streptococcus agalactiae (GC 4564) ([4]; strain GC 4564): <0.12 to 0.25 µg/mL
- MIC Streptococcus pneumoniae (GC 4565) ([4]; strain GC 4565): <0.12 µg/mL
- median effective dose (ED50), Staphylococcus aureus-SMITH (GC 4543) [5]: 0.19 mg/kg
- median effective dose (ED50), Streptococcus pneumoniae (GC 1894) [6]: 0.22 mg/kg
- Clinical Chemistry (Day 10) % of Control, AST [7]: +87%
- Clinical Chemistry (Day 10) % of Control, BUN [7]: +203%
- Clinical Chemistry (Day 10) % of Control, Creatinine [7]: +65%
- Anatomical Pathology (Day 10), Heart [8]: +++
- Anatomical Pathology (Day 10), Kidney [8]: +++
